In PubChem BioAssay AID330 (DTP/NCI, 2004):
Values joined by “and” are separate entries in the source; they are usually repeats but may differ in a detail not shown here. Identical values can stand only once. Toxic doses and inconclusive results are not listed. The calls were made as follows: active = survival T/C of 150% or more; inactive = T/C below 125% in these data.

Tested on: P388 leukemia ip, CD2F1 mice, survival T/C
Test: NCI In Vivo Anticancer Drug Screen. Data for tumor model P388 Leukemia (intraperitoneal) in CD2F1 (CDF1) mice
Details: endpoint: median survival time, higher = longer survival
Procedure, shortened: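 Mice carrying the transplanted tumor received test compound or vehicle. Survival was recorded in each group, and the value is the treated-group measurement divided by that of the vehicle-treated control group.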

[1] = dose: 25.0 mg/kg/injection, schedule: Q01DX009 (ip), vehicle: saline with Tween-80
[2] = dose: 50.0 mg/kg/injection, schedule: Q01DX009 (ip), vehicle: saline with Tween-80
[3] = dose: 100.0 mg/kg/injection, schedule: Q04DX003 (ip), vehicle: saline with Tween-80
[4] = dose: 200.0 mg/kg/injection, schedule: Q04DX003 (ip), vehicle: saline with Tween-80
[5] = dose: 400.0 mg/kg/injection, schedule: Q04DX003 (ip), vehicle: saline with Tween-80
[6] = dose: 50.0 mg/kg/injection, schedule: Q01DX009 (ip), vehicle: Klucel (hydroxypropylcellulose) (HPC)
[7] = dose: 100.0 mg/kg/injection, schedule: Q01DX009 (ip), vehicle: Klucel (hydroxypropylcellulose) (HPC)
[8] = dose: 200.0 mg/kg/injection, schedule: Q01DX009 (ip), vehicle: Klucel (hydroxypropylcellulose) (HPC)
[9] = dose: 100.0 mg/kg/injection, schedule: Q04DX002 (ip), vehicle: saline
[10] = dose: 200.0 mg/kg/injection, schedule: Q04DX002 (ip), vehicle: saline
[11] = dose: 60.0 mg/kg/injection, schedule: Q01DX005 (ip), vehicle: saline with Tween-80
[12] = dose: 120.0 mg/kg/injection, schedule: Q01DX005 (ip), vehicle: saline with Tween-80
[13] = dose: 240.0 mg/kg/injection, schedule: Q01DX005 (ip), vehicle: saline with Tween-80
[14] = dose: 12.5 mg/kg/injection, schedule: Q01DX009 (ip), vehicle: saline with Tween-80

Measured: T/C

CC(=O)OC(C(=O)OC1C[C@]2(O)C(OC(=O)c3ccccc3)C3[C@@]4(OC(C)=O)CO[C@H]4C[C@@H](OC(C)=O)[C@]3(C)C(=O)[C@@H](OC(C)=O)C(=C1C)C2(C)C)C(NC(=O)c1ccccc1)c1ccccc1 (stereo not given in full)
inactive: dose: 5.0 mg/kg/injection, schedule: Q01DX009 (ip), vehicle: Klucel (hydroxypropylcellulose) (HPC) 99 % of control | dose: 10.0 mg/kg/injection, schedule: Q01DX009 (ip), vehicle: Klucel (hydroxypropylcellulose) (HPC) 105 % of control | dose: 20.0 mg/kg/injection, schedule: Q01DX009 (ip), vehicle: Klucel (hydroxypropylcellulose) (HPC) 100 % of control | dose: 40.0 mg/kg/injection, schedule: Q01DX009 (ip), vehicle: Klucel (hydroxypropylcellulose) (HPC) 104 % of control

O=C1C=CC(=Nc2cccc3c2C(=O)c2ccccc2-3)O1
inactive: dose: 50.0 mg/kg/injection, schedule: Q01DX005 (ip), vehicle: saline with Tween-80 107 % of control and 115 % of control | dose: 100.0 mg/kg/injection, schedule: Q01DX005 (ip), vehicle: saline with Tween-80 120 % of control and 122 % of control | dose: 200.0 mg/kg/injection, schedule: Q01DX005 (ip), vehicle: saline with Tween-80 122 % of control

Nc1[nH]nc2nc(-c3ccccc3)cnc12
inactive: [1] 90 % of control | [2] 86 % of control | dose: 100.0 mg/kg/injection, schedule: Q01DX009 (ip), vehicle: saline with Tween-80 90 % of control | [3] 90 % of control | [4] 90 % of control | [5] 90 % of control

Cc1ccc(S(=O)(=O)N=S(CCO)CCO)cc1
inactive: [6] 106 % of control | [7] 110 % of control | [8] 108 % of control | dose: 400.0 mg/kg/injection, schedule: Q01DX009 (ip), vehicle: Klucel (hydroxypropylcellulose) (HPC) 107 % of control

COc1cccc(C)c1NC1=NCCO1
inactive: dose: 0.78 mg/kg/injection, schedule: Q04DX003 (ip), vehicle: saline with Tween-80 100 % of control | dose: 1.56 mg/kg/injection, schedule: Q04DX003 (ip), vehicle: saline with Tween-80 100 % of control | dose: 3.13 mg/kg/injection, schedule: Q04DX003 (ip), vehicle: saline with Tween-80 104 % of control

O=C1OC(=O)C2C3C=CC(C12)C1C2C(=O)OC(=O)C2C31 (stereo not given)
inactive: [3] 103 % of control | [4] 99 % of control | [5] 96 % of control | dose: 600.0 mg/kg/injection, schedule: Q04DX003 (ip), vehicle: saline with Tween-80 96 % of control

COc1cc(OC)c(NC(=S)Nc2sc3c(c2C#N)CCCC3)cc1Cl
inactive: dose: 50.0 mg/kg/injection, schedule: Q01DX009 (ip), vehicle: gum acacia 110 % of control | dose: 100.0 mg/kg/injection, schedule: Q01DX009 (ip), vehicle: gum acacia 103 % of control | dose: 200.0 mg/kg/injection, schedule: Q01DX009 (ip), vehicle: gum acacia 102 % of control

CN1c2ccccc2Sc2cc(N3c4ccccc4Sc4ccc(C(F)(F)F)cc43)c(C(F)(F)F)cc21
inactive: dose: 100.0 mg/kg/injection, schedule: Q04DX003 (ip), vehicle: Klucel (hydroxypropylcellulose) (HPC) 101 % of control | dose: 200.0 mg/kg/injection, schedule: Q04DX003 (ip), vehicle: Klucel (hydroxypropylcellulose) (HPC) 100 % of control | dose: 400.0 mg/kg/injection, schedule: Q04DX003 (ip), vehicle: Klucel (hydroxypropylcellulose) (HPC) 98 % of control

Cc1ccccc1N
inactive: dose: 50.0 mg/kg/injection, schedule: Q01DX009 (ip), vehicle: saline sonified 100 % of control | dose: 100.0 mg/kg/injection, schedule: Q01DX009 (ip), vehicle: saline sonified 100 % of control | dose: 200.0 mg/kg/injection, schedule: Q01DX009 (ip), vehicle: saline sonified 104 % of control

COC(=O)C1C(=O)COc2ccccc21 (stereo not given)
inactive: dose: 100.0 mg/kg/injection, schedule: Q04DX003 (ip), vehicle: saline 105 % of control | dose: 200.0 mg/kg/injection, schedule: Q04DX003 (ip), vehicle: saline 106 % of control | dose: 400.0 mg/kg/injection, schedule: Q04DX003 (ip), vehicle: saline 106 % of control

Cn1cccc/c1=N\N
inactive: [9] 100 % of control | [10] 99 % of control

CCC(=O)c1ccc(OS(=O)(=O)O)cc1
inactive: [6] 96 % of control | [7] 103 % of control | [8] 99 % of control

CC(=Nc1c[nH]c(=O)[nH]c1=O)c1cc(C)ccc1O
inactive: dose: 100.0 mg/kg/injection, schedule: Q04DX002 (ip), vehicle: suspension in saline 105 % of control | dose: 200.0 mg/kg/injection, schedule: Q04DX002 (ip), vehicle: suspension in saline 101 % of control | dose: 400.0 mg/kg/injection, schedule: Q04DX002 (ip), vehicle: suspension in saline 104 % of control

CC(=O)Nc1ccc(/C=N/NC(=O)CC2CCCCC2)cc1
inactive: [11] 96 % of control | [12] 100 % of control | [13] 91 % of control

O=C1NC(=O)[C@H]2C3C=CC([C@@H]12)[C@@H]1C(=O)NC(=O)[C@H]31
inactive: dose: 25.0 mg/kg/injection, schedule: Q01DX009 (ip), vehicle: water 105 % of control | dose: 50.0 mg/kg/injection, schedule: Q01DX009 (ip), vehicle: water 100 % of control | dose: 100.0 mg/kg/injection, schedule: Q01DX009 (ip), vehicle: water 97 % of control | dose: 200.0 mg/kg/injection, schedule: Q01DX009 (ip), vehicle: water 92 % of control

C1CCC2C(C1)CCC1COCN12 (stereo not given)
inactive: dose: 12.5 mg/kg/injection, schedule: Q01DX005 (ip), vehicle: Klucel (hydroxypropylcellulose) (HPC) 98 % of control | dose: 12.5 mg/kg/injection, schedule: Q01DX005 (ip), vehicle: saline 108 % of control | dose: 25.0 mg/kg/injection, schedule: Q01DX005 (ip), vehicle: Klucel (hydroxypropylcellulose) (HPC) 100 % of control | dose: 25.0 mg/kg/injection, schedule: Q01DX005 (ip), vehicle: saline 100 % of control | dose: 50.0 mg/kg/injection, schedule: Q01DX005 (ip), vehicle: Klucel (hydroxypropylcellulose) (HPC) 105 % of control | dose: 50.0 mg/kg/injection, schedule: Q01DX005 (ip), vehicle: saline 103 % of control and 119 % of control | dose: 100.0 mg/kg/injection, schedule: Q01DX005 (ip), vehicle: Klucel (hydroxypropylcellulose) (HPC) 114 % of control | dose: 100.0 mg/kg/injection, schedule: Q01DX005 (ip), vehicle: saline 118 % of control and 124 % of control | dose: 200.0 mg/kg/injection, schedule: Q01DX005 (ip), vehicle: saline 101 % of control

CCOC(=O)C(C(=O)c1ccccc1)c1cc(NS(=O)(=O)c2ccccc2)ccc1O (stereo not given)
inactive: [14] 90 % of control | [1] 100 % of control | [2] 105 % of control | dose: 75.0 mg/kg/injection, schedule: Q04DX003 (ip), vehicle: saline with Tween-80 100 % of control | dose: 150.0 mg/kg/injection, schedule: Q04DX003 (ip), vehicle: saline with Tween-80 100 % of control | dose: 300.0 mg/kg/injection, schedule: Q04DX003 (ip), vehicle: saline with Tween-80 100 % of control

CCOC(=O)NC(=S)Nc1ccn(C)c1
inactive: dose: 50.0 mg/kg/injection, schedule: Q04DX003 (ip), vehicle: saline with Tween-80 99 % of control and 101 % of control | [3] 100 % of control and 94 % of control and 97 % of control | [4] 100 % of control | [5] 98 % of control and 103 % of control and 97 % of control

C/C(=C/C(=O)Nc1ccccc1)Nc1onc(C)c1C
inactive: [11] 102 % of control | [12] 96 % of control | [13] 90 % of control

CCOC(=N)N1[C@@H]2CCCC[C@@H]21
inactive: [9] 101 % of control | [10] 109 % of control | dose: 400.0 mg/kg/injection, schedule: Q04DX002 (ip), vehicle: saline 120 % of control

CCCCCCCCSC1=C(Cl)C(=O)C(OC)=C(OC)C1=O
inactive: dose: 1.5 mg/kg/injection, schedule: Q04DX002 (ip), vehicle: saline with Tween-80 101 % of control | dose: 3.0 mg/kg/injection, schedule: Q04DX002 (ip), vehicle: saline with Tween-80 99 % of control | dose: 6.0 mg/kg/injection, schedule: Q04DX002 (ip), vehicle: saline with Tween-80 99 % of control | dose: 6.25 mg/kg/injection, schedule: Q01DX009 (ip), vehicle: saline with Tween-80 101 % of control | dose: 12.0 mg/kg/injection, schedule: Q04DX002 (ip), vehicle: saline with Tween-80 108 % of control | [14] 105 % of control | dose: 24.0 mg/kg/injection, schedule: Q04DX002 (ip), vehicle: saline with Tween-80 108 % of control | [1] 111 % of control | dose: 48.0 mg/kg/injection, schedule: Q04DX002 (ip), vehicle: saline with Tween-80 107 % of control
